Paper PMC7367283, “A PIP2 substitute mediates voltage sensor-pore coupling in KCNQ activation” (Communications Biology, 2020)
“And” between values parts separate entries of the source, which are not always exact repeats. Equal entries are not always repeated.

Columns and labels:
Assay in all cases: Two-electrode voltage clamp of mutant KCNQ1 in Xenopus oocytes
Format in all cases: cell-based
[1] = target: KCNQ1 R249A (Homo sapiens, UniProt P51787, R249A)
Source text: (§1) In a previous study, mutation of residues in the predicted PIP2-binding site reduced KCNQ1 currents. CP1 modifies voltage-dependent activation of KCNQ1 channels by shifting the voltage dependence of channel opening, measured as the voltage dependence of the conductance (G–V) relationship, to more negative voltages (Fig. 1c) among other characteristics (see below). We made mutations to the residues around the CP1-interacting pocket as indicated by molecular docking (Fig. 1b), and examined the effects of the mutations on the CP1-induced shift of the G–V relationship. The mutations of the KCNQ1 residues that interact with CP1 in docking simulations reduced the shift of the G–V relationship (Fig. 1c, d), supporting the interaction of these residues with CP1.
(§2) Complementary DNA (cDNA) encoding human KCNQ1 (UniProtKB/Swiss‐Prot under accession no. P51787), KCNQ2 (O43526), KCNQ3 (O43525), KCNE1 (P15382), Kir1.1 (P48048), hERG (Q12809), KV4.2 (Q63881), NaV1.5 (Q14524), NaV β1 (Q07699), CaV1.2 (Q13936), CaV β1a (Q02641), CaV α2/δ1 (P54289), and HCN4 (Q9Y3Q4) were subcloned into oocyte expression vectors, respectively. Site-directed mutations of the KCNQ1 channel were all produced by overlap extension polymerase chain reaction (PCR) with high-fidelity Pfu polymerase (Stratagene, CA). The presence of the desired mutation was verified by sequencing the PCR-amplified regions. All the primer sequences used in this study are available in Supplementary Table 1. The complementary RNA (cRNA) of all these channels and mutations was transcribed in vitro with the T3, T7, or SP6 polymerase mMessage mMachine kit (Invitrogen, Thermo Fisher Scientific, MO).
(§3) The use of Xenopus laevis to obtain oocytes was approved by the Washington University Animal Studies Committee (protocol #20190030). Oocytes were manually dispersed and digested with collagenase (0.5 mg/ml, Sigma-Aldrich, Saint Louis, MO) to remove the follicle cell layer. Stage V or VI oocytes were selected and injected with cRNAs (9.2 ng) of channel or mutations. Especially, to characterize IKs, a mix of cRNAs at a molar ratio 4:1 (KCNQ1:KCNE1) was injected. For KCNQ2/KCNQ3, the molar ratio was 1:1 (KCNQ2:KCNQ3). For sodium channels, a 3:1 molar ratio (β1:NaV1.5) and for calcium channels a weight ratio 1:1:1 (β1:α2/δ1:CaV1.2) was injected, respectively. Injected oocytes were incubated in ND96 solution containing (in mM) 96 NaCl, 2 KCl, 1.8 CaCl2, 1 MgCl2, and 5 HEPES, pH 7.6, supplemented with 2.5 mM Na pyruvate and 1% penicillin–streptomycin, at 18 °C for 3–7 days before recording.
(§4) The whole-oocyte ionic currents were recorded with a GeneClamp 500B amplifier (Axon Instruments, CA) or iTEV90 amplifier (HEKA, Germany) and then sampled at 1 kHz and low-pass-filtered at 2 kHz. The Patchmaster software (HEKA, Germany) was used to acquire data. The Kir1.1 current was recorded with a high K^+ bath solution containing (in mM) 96 KCl, 4 NaCl, 1 CaCl2, 2 MgCl2, and 10 HEPES, pH 7.3–7.4. The HCN4 current was recorded in ND66 solution containing (in mM) 66 NaCl, 32 KCl, 1.8 CaCl2, 1 MgCl2, and 5 HEPES, pH 7.6. All the other potassium channels were recorded in ND96 solution. The currents of CaV1.2 channel were recorded in 40 mM Ba^2+ bath solution containing (in mM) 40 Ba(OH)2, 50 TEA-OH, 2 KOH, and 5 HEPES, adjusted to pH 7.4 with methanesulfonic acid. CP1 (DISODIUM 5-BROMO-2-[9-CHLORO-3-(SULFONATOOXY) NAPHTHO [1,2-B] THIEN-2-YL]-1H-INDOL-3-YL SULFATE, Sigma-Aldrich, MO) and Chromanol 293B (Sigma-Aldrich, MO) were dissolved in bath solutions. All the chemicals were purchased from Sigma-Aldrich. To measure the I–V relations of the Kir1.1 channel, the test voltage was set from −100 to +60 mV for 1 s with 20-mV increments. The test pulses were stepped from a holding potential of 0 mV and then stepped back to 0 mV. The HCN4 currents were recorded by a test pulse between −30 and −140 mV in 10-mV step from a holding potential of −30 mV. […]

[2] = target: KCNQ1 R243A/R249A (Homo sapiens, UniProt P51787, R243A/R249A); details: 10 µM CP1, individual oocytes
Source text: as §1, §2, §3, §4

[3] = target: KCNQ1 R249A/K354A (Homo sapiens, UniProt P51787, K354A/R249A); details: 10 µM CP1, individual oocytes
Source text: as §1, §2, §3, §4

[4] = target: KCNQ1 Q359A (Homo sapiens, UniProt P51787, Q359A); details: 10 µM CP1, individual oocytes
Source text: as §1, §2, §3, §4

[5] = target: KCNQ1 K358A (Homo sapiens, UniProt P51787, K358A)
Source text: as §1, §2, §3, §4

[6] = target: KCNQ1 R249A/S253A (Homo sapiens, UniProt P51787, R249A/S253A); details: 10 µM CP1, individual oocytes
Source text: as §1, §2, §3, §4

`O=S(=O)([O-])Oc1c(-c2sc3c(ccc4cccc(Cl)c43)c2OS(=O)(=O)[O-])[nH]c2ccc(Br)cc12.[Na+].[Na+]` [CP1, DISODIUM 5-BROMO-2-[9-CHLORO-3-(SULFONATOOXY) NAPHTHO [1,2-B] THIEN-2-YL]-1H-INDOL-3-YL SULFATE] showed a G/Gmax ([1]; 10 µM CP1, 0 mV) of 0.9092, a G/Gmax ([1]; 10 µM CP1, 10 mV) of 0.9509 and a G/Gmax ([1]; 10 µM CP1, 20 mV) of 0.9864. For the same compound, the G/Gmax ([1]; 10 µM CP1, 30 mV) was 1.0000, the G/Gmax ([1]; 10 µM CP1, -10 mV) was 0.8439 and the G/Gmax ([1]; 10 µM CP1, -20 mV) was 0.7664. For the same compound, the G/Gmax ([1]; 10 µM CP1, -30 mV) was 0.6715, the G/Gmax ([1]; 10 µM CP1, -40 mV) was 0.5716 and the G/Gmax ([1]; 10 µM CP1, -50 mV) was 0.4548. It also gave a G/Gmax ([1]; 10 µM CP1, -60 mV) of 0.3517, a G/Gmax ([1]; 10 µM CP1, -70 mV) of 0.2667 and a G/Gmax ([1]; 10 µM CP1, -80 mV) of 0.1987. For the same compound, the G/Gmax ([1]; 10 µM CP1, -90 mV) was 0.1385, the G/Gmax ([1]; 10 µM CP1, -100 mV) was 0.0990 and the G/Gmax ([1]; 10 µM CP1, -110 mV) was 0.0539. For the same compound, the G/Gmax ([1]; 10 µM CP1, -120 mV) was 0.0000, the “∆V1/2” value ([1]; 10 µM CP1, individual oocytes) was 32.4733 mV and 36.93 mV and 39.3292 mV and 47.5115 mV and 29.4037 mV and the “∆V1/2” value [2] was 58.531 mV and 59.5008 mV and 36.2737 mV and 44.7577 mV. For the same compound, the “∆V1/2” value [3] was 32.102 mV and 39.1842 mV and 11.494 mV and 26.1488 mV and 17.9511 mV, the “∆V1/2” value [4] was 92.2901 mV and 78.8586 mV and 79.8593 mV and 57.9843 mV and the G/Gmax ([5]; 10 µM CP1, 0 mV) was 0.9554. For the same compound, the G/Gmax ([5]; 10 µM CP1, 10 mV) was 0.9870, the G/Gmax ([5]; 10 µM CP1, 20 mV) was 1.0000 and the G/Gmax ([5]; 10 µM CP1, -10 mV) was 0.8985. For the same compound, the G/Gmax ([5]; 10 µM CP1, -20 mV) was 0.8248, the G/Gmax ([5]; 10 µM CP1, -30 mV) was 0.7348 and the G/Gmax ([5]; 10 µM CP1, -40 mV) was 0.6300. The G/Gmax ([5]; 10 µM CP1, -50 mV) was 0.5260, the G/Gmax ([5]; 10 µM CP1, -60 mV) was 0.4207 and the G/Gmax ([5]; 10 µM CP1, -70 mV) was 0.3286. The G/Gmax ([5]; 10 µM CP1, -80 mV) was 0.2595, the G/Gmax ([5]; 10 µM CP1, -90 mV) was 0.1953 and the G/Gmax ([5]; 10 µM CP1, -100 mV) was 0.1209. For the same compound, the G/Gmax ([5]; 10 µM CP1, -110 mV) was 0.0580, the G/Gmax ([5]; 10 µM CP1, -120 mV) was 0.0105 and the “∆V1/2” value ([5]; 10 µM CP1, individual oocytes) was 15.3181 mV and 41.4752 mV and 28.1195 mV and 31.8534 mV and 36.2122 mV and 21.5083 mV and 28.8875 mV. The “∆V1/2” value [6] was 49.1729 mV and 54.4047 mV and 38.3473 mV.
